Experiment: xn = mol fraction of the nth substance listed

CCCCCCCCCCCC + CC(C)O
viscosity [mPa·s], 101.32 kPa
Conditions | 293.15 K | 298.15 K | 303.15 K
x2 = 0.0422 | 1.446 | 1.325 | 1.219
x2 = 0.0957 | 1.424 | 1.306 | 1.191
x2 = 0.2215 | 1.397 | 1.276 | 1.177
x2 = 0.3267 | 1.396 | 1.27 | 1.164
x2 = 0.3943 | 1.407 | 1.28 | 1.167
x2 = 0.4959 | 1.421 | 1.28 | 1.16
x2 = 0.5981 | 1.48 | 1.324 | 1.192
x2 = 0.6957 | 1.566 | 1.392 | 1.243
x2 = 0.8012 | 1.714 | 1.503 | 1.33
x2 = 0.9005 | 1.92 | 1.674 | 1.467
x2 = 0.9502 | 2.101 | 1.815 | 1.58

NC(N)=O + CC(C)O
viscosity [mPa·s], 101 kPa
Conditions | 293.15 K | 298.15 K | 303.15 K | 308.15 K | 313.15 K | 318.15 K | 323.15 K
x1 = 0.02132 | 2.552 | 2.196 | 1.899 | 1.65 | 1.44 | 1.262 | 1.111
x1 = 0.02695 | 2.58 | 2.22 | 1.92 | 1.669 | 1.457 | 1.277 | 1.124
x1 = 0.03401 | 2.6 | 2.243 | 1.944 | 1.693 | 1.481 | 1.301 | 1.147

CCOC(=O)OCC + CC(C)OC(C)C
viscosity [mPa·s], 100 kPa
Conditions | x1 = 0.0986 | x1 = 0.1988 | x1 = 0.3012 | x1 = 0.4026 | x1 = 0.4998 | x1 = 0.5976 | x1 = 0.7008 | x1 = 0.8014 | x1 = 0.9009
303.15 K | 0.325 | 0.351 | 0.379 | 0.409 | 0.442 | 0.481 | 0.528 | 0.58 | 0.636
308.15 K | 0.309 | 0.332 | 0.359 | 0.387 | 0.419 | 0.455 | 0.497 | 0.546 | 0.599
313.15 K | 0.296 | 0.317 | 0.341 | 0.369 | 0.398 | 0.432 | 0.472 | 0.516 | 0.566

CC(C)[C@@H]1CC[C@@H](C)C[C@H]1O + CC(O)CCO
Conditions | viscosity [mPa·s]
298.15 K, 101.33 kPa, x1 = 0.5 | 140.3

CC(C)[C@@H]1CC[C@@H](C)C[C@H]1O + CC(O)CO
Conditions | viscosity [mPa·s]
298.15 K, 101.33 kPa, x1 = 0.5 | 81.72

CCCCCCCCCCO + CCC(C)=O
viscosity [mPa·s], 100 kPa
Conditions | x2 = 0.0798 | x2 = 0.1601 | x2 = 0.2392 | x2 = 0.3498 | x2 = 0.4401 | x2 = 0.5602 | x2 = 0.6496 | x2 = 0.7411 | x2 = 0.8502 | x2 = 0.9406
293.15 K | 11.4 | 8.94 | 7.3 | 5.65 | 4.57 | 3.24 | 2.34 | 1.68 | 1.01 | 0.6
303.15 K | 7.99 | 6.34 | 4.92 | 3.65 | 2.75 | 2 | 1.52 | 1.11 | 0.74 | 0.49
313.15 K | 5.31 | 4.24 | 3.39 | 2.42 | 1.88 | 1.39 | 1.1 | 0.82 | 0.58 | 0.4
323.15 K | 3.95 | 3.23 | 2.64 | 1.93 | 1.52 | 1.13 | 0.87 | 0.66 | 0.48 | 0.36

Cc1ccccc1C + CCC(C)O
308.15 K, 101 kPa
Conditions | viscosity [mPa·s]
x2 = 0.0648 | 0.655
x2 = 0.1275 | 0.663
x2 = 0.2083 | 0.681
x2 = 0.3048 | 0.679
x2 = 0.3787 | 0.715
x2 = 0.4323 | 0.742
x2 = 0.5015 | 0.796
x2 = 0.6005 | 0.879
x2 = 0.6944 | 1.048
x2 = 0.7978 | 1.265
x2 = 0.9485 | 1.751

OCCOCCOCCO + CCC(C)O
viscosity [mPa·s], 100 kPa
Conditions | x1 = 0.0808 | x1 = 0.1599 | x1 = 0.2399 | x1 = 0.35 | x1 = 0.44 | x1 = 0.5558 | x1 = 0.6502 | x1 = 0.7399 | x1 = 0.8502 | x1 = 0.94
293.15 K | 5.57 | 7.33 | 9.21 | 12.23 | 15.18 | 19.7 | 24.16 | 29.07 | 36.18 | 43.08
298.15 K | 4.23 | 5.59 | 7 | 9.31 | 11.53 | 14.96 | 18.37 | 22.16 | 27.73 | 33.06
303.15 K | 3.68 | 4.84 | 6.08 | 7.92 | 9.7 | 12.38 | 15.03 | 17.95 | 22.19 | 26.32
308.15 K | 3.18 | 4.17 | 5.17 | 6.64 | 7.98 | 10.05 | 12.09 | 14.34 | 17.76 | 21
313.15 K | 2.58 | 3.33 | 4.17 | 5.42 | 6.58 | 8.32 | 10.01 | 11.91 | 14.65 | 17.26
318.15 K | 2.26 | 3.02 | 3.79 | 4.92 | 5.92 | 7.37 | 8.75 | 10.23 | 12.32 | 14.31
323.15 K | 1.94 | 2.54 | 3.17 | 4.12 | 4.97 | 6.23 | 7.4 | 8.65 | 10.4 | 11.99

CC(C)[C@@H]1CC[C@@H](C)C[C@H]1O + CCC(O)CO
Conditions | viscosity [mPa·s]
298.15 K, 101.33 kPa, x1 = 0.5 | 88.2

OCCOCCOCCO + CCCC(C)O
viscosity [mPa·s], 100 kPa
Conditions | x1 = 0.0809 | x1 = 0.16 | x1 = 0.2401 | x1 = 0.35 | x1 = 0.44 | x1 = 0.5601 | x1 = 0.6499 | x1 = 0.7401 | x1 = 0.8501 | x1 = 0.9401
293.15 K | 4.98 | 6.16 | 7.62 | 10.23 | 12.89 | 17.73 | 22.03 | 27.33 | 34.9 | 42.55
298.15 K | 4.35 | 5.48 | 6.71 | 8.84 | 10.83 | 14.35 | 17.55 | 21.36 | 27.16 | 32.88
303.15 K | 3.57 | 4.56 | 5.62 | 7.33 | 8.95 | 11.76 | 14.33 | 17.37 | 21.79 | 26.06
308.15 K | 3.03 | 3.84 | 4.79 | 6.2 | 7.55 | 9.77 | 11.78 | 14.16 | 17.58 | 21.01
313.15 K | 2.48 | 3.16 | 3.93 | 5.1 | 6.26 | 8.19 | 9.89 | 11.86 | 14.62 | 17.22
318.15 K | 2.24 | 2.86 | 3.49 | 4.48 | 5.4 | 6.92 | 8.23 | 9.81 | 12.04 | 14.18
323.15 K | 1.94 | 2.47 | 3.03 | 3.87 | 4.64 | 5.92 | 6.99 | 8.27 | 10.15 | 11.91

CCCCCCCCCCO + CCCCCC
viscosity [mPa·s]
Conditions | 298.15 K | 313.15 K
101 kPa, x1 = 0.1542 | 0.53 | 0.436
101 kPa, x1 = 0.2062 | 0.652 | 0.522
101 kPa, x1 = 0.2913 | 0.903 | 0.696
101 kPa, x1 = 0.4059 | 1.404 | 1.025
101 kPa, x1 = 0.5224 | 2.204 | 1.524
101 kPa, x1 = 0.604 | 3.005 | 2.014
101 kPa, x1 = 0.7085 | 4.435 | 2.85
101 kPa, x1 = 0.8065 | 6.289 | 3.857
101 kPa, x1 = 0.8728 | 7.898 | 4.705
101.3 kPa, x1 = 0.0533 | 0.372 | –
101.3 kPa, x1 = 0.1124 | 0.458 | –
101.3 kPa, x1 = 0.1601 | 0.545 | –
101.3 kPa, x1 = 0.208 | 0.651 | –
101.3 kPa, x1 = 0.2525 | 0.733 | –
101.3 kPa, x1 = 0.3012 | 0.929 | –
101.3 kPa, x1 = 0.4024 | 1.377 | –
101.3 kPa, x1 = 0.5028 | 2.028 | –
101.3 kPa, x1 = 0.6001 | 2.934 | –
101.3 kPa, x1 = 0.7019 | 4.26 | –
101.3 kPa, x1 = 0.7954 | 5.923 | –
101.3 kPa, x1 = 0.8487 | 7.108 | –
101.3 kPa, x1 = 0.9002 | 8.453 | –
101.3 kPa, x1 = 0.9622 | 10.36 | –

Cc1ccc(Cl)cc1 + CCCCCC
viscosity [mPa·s], 100 kPa
Conditions | 298.15 K | 308.15 K | 318.15 K
x1 = 0.0878 | 0.332 | 0.307 | 0.285
x1 = 0.1581 | 0.352 | 0.324 | 0.3
x1 = 0.2446 | 0.379 | 0.348 | 0.322
x1 = 0.2988 | 0.397 | 0.364 | 0.337
x1 = 0.4004 | 0.435 | 0.398 | 0.367
x1 = 0.47 | 0.466 | 0.426 | 0.393
x1 = 0.5234 | 0.492 | 0.448 | 0.412
x1 = 0.572 | 0.519 | 0.47 | 0.429
x1 = 0.622 | 0.548 | 0.493 | 0.449
x1 = 0.681 | 0.584 | 0.524 | 0.475
x1 = 0.7857 | 0.654 | 0.584 | 0.53
x1 = 0.8603 | 0.707 | 0.632 | 0.572
x1 = 0.9366 | 0.773 | 0.687 | 0.618

Cc1ccccc1C + CCCCCC
viscosity [mPa·s], 101.33 kPa
Conditions | x2 = 0.29 | x2 = 0.6 | x2 = 0.79
293.15 K | 0.5875 | 0.4736 | 0.3659
313.15 K | 0.4679 | 0.3797 | 0.3022

— the CheMixHub viscosity set
